# Positions of bridges follow the written chain, without caps; N, C: chain ends. Non-standard residues stand in square brackets, D forms with d. Residues, ends and D or L forms follow the SMILES beside them. *: point of attachment. Ileψ(thiazoline)Cys = CC[C@H](C)[C@H](N)C1=N[C@H](C(=O)*)CS1; dOrn = NCCC[C@@H](N)C(=O)O
# Key:
# [1] = tested on: coccidiosis; details: alone; Science, 122: 244 (1955); cited from earlier work
# [2] = tested on: Enterobacter aerogenes C32; assay: Standard agar-dilution assay, MIC; assay type: cell-based; details: Klebsiella aerogenes, 24-hour incubation
# Protocol: (§1) The A80789 compounds have antibacterial and anticoccidial activity. A80789 compounds are especially active against anaerobic bacteria. The minimal inhibitory concentrations (MIC's) at which A80789 inhibits various bacteria, as determined by standard agar-dilution assays, are summarized in Tables III and IV. End points were read after 24-hour incubation.
# [3] = tested on: Enterobacter aerogenes EB17; assay: Standard agar-dilution assay, MIC; assay type: cell-based; details: Klebsiella aerogenes, 24-hour incubation
# Protocol: as §1
# [4] = tested on: Escherichia coli EC14; assay: Standard agar-dilution assay, MIC; assay type: cell-based; details: 24-hour incubation
# Protocol: as §1
# [5] = tested on: Escherichia coli N10; assay: Standard agar-dilution assay, MIC; assay type: cell-based; details: 24-hour incubation
# Protocol: as §1
# [6] = tested on: Escherichia coli TEM; assay: Standard agar-dilution assay, MIC; assay type: cell-based; details: 24-hour incubation
# Protocol: as §1
# [7] = tested on: Haemophilus influenzae 76; assay: Standard agar-dilution assay, MIC; assay type: cell-based; details: 24-hour incubation
# Protocol: as §1
# [8] = tested on: Haemophilus influenzae C.L.; assay: Standard agar-dilution assay, MIC; assay type: cell-based; details: 24-hour incubation
# Protocol: as §1
# [9] = tested on: Klebsiella sp.; assay: Standard agar-dilution assay, MIC; assay type: cell-based; details: 24-hour incubation
# Protocol: as §1
# [10] = tested on: Proteus sp.; assay: Standard agar-dilution assay, MIC; assay type: cell-based; details: 24-hour incubation
# Protocol: as §1
# [11] = tested on: Pseudomonas aeruginosa PS18; assay: Standard agar-dilution assay, MIC; assay type: cell-based; details: 24-hour incubation
# Protocol: as §1
# [12] = tested on: Pseudomonas aeruginosa PS72; assay: Standard agar-dilution assay, MIC; assay type: cell-based; details: 24-hour incubation
# Protocol: as §1
# [13] = tested on: Pseudomonas aeruginosa X239; assay: Standard agar-dilution assay, MIC; assay type: cell-based; details: 24-hour incubation
# Protocol: as §1
# [14] = tested on: Pseudomonas aeruginosa X528; assay: Standard agar-dilution assay, MIC; assay type: cell-based; details: 24-hour incubation
# Protocol: as §1
# [15] = tested on: Salmonella sp; assay: Standard agar-dilution assay, MIC; assay type: cell-based; details: 24-hour incubation
# Protocol: as §1
# [16] = tested on: Serratia marcescens X99; assay: Standard agar-dilution assay, MIC; assay type: cell-based; details: 24-hour incubation
# Protocol: as §1
# [17] = tested on: Shigella sonnei; assay: Standard agar-dilution assay, MIC; assay type: cell-based; details: 24-hour incubation
# Protocol: as §1
# [18] = tested on: Staphylococcus aureus S13E; assay: Standard agar-dilution assay, MIC; assay type: cell-based; details: 24-hour incubation
# Protocol: as §1
# [19] = tested on: Staphylococcus aureus V41; assay: Standard agar-dilution assay, MIC; assay type: cell-based; details: 24-hour incubation
# Protocol: as §1
# [20] = tested on: Staphylococcus aureus X1.1; assay: Standard agar-dilution assay, MIC; assay type: cell-based; details: 24-hour incubation
# Protocol: as §1
# [21] = tested on: Staphylococcus aureus X400; assay: Standard agar-dilution assay, MIC; assay type: cell-based; details: 24-hour incubation
# Protocol: as §1
# [22] = tested on: Staphylococcus epidermidis 222; assay: Standard agar-dilution assay, MIC; assay type: cell-based; details: 24-hour incubation
# Protocol: as §1
# [23] = tested on: Staphylococcus epidermidis Epi 1; assay: Standard agar-dilution assay, MIC; assay type: cell-based; details: EPI1, 24-hour incubation
# Protocol: as §1
# [24] = tested on: Streptococcus faecalis 2041; assay: Standard agar-dilution assay, MIC; assay type: cell-based; details: 24-hour incubation, reclassified as Enterococcus faecalis 2041
# Protocol: as §1
# [25] = tested on: Streptococcus faecium X66; assay: Standard agar-dilution assay, MIC; assay type: cell-based; details: 24-hour incubation, reclassified as Enterococcus faecium X66
# Protocol: as §1
# [26] = tested on: Streptococcus pneumoniae Park 1; assay: Standard agar-dilution assay, MIC; assay type: cell-based; details: PARK1, 24-hour incubation
# Protocol: as §1
# [27] = tested on: Streptococcus pyogenes C203; assay: Standard agar-dilution assay, MIC; assay type: cell-based; details: 24-hour incubation
# Protocol: as §1
# [28] = tested on: Bacteroides corredens 1874; assay: Standard agar-dilution assay, MIC (anaerobic bacteria); assay type: cell-based; details: 24-hour incubation
# Protocol: as §1
# [29] = tested on: Bacteroides fragilis 111; assay: as above; assay type: cell-based; details: 24-hour incubation
# Protocol: as §1
# [30] = tested on: Bacteroides fragilis 1877; assay: as above; assay type: cell-based; details: 24-hour incubation
# Protocol: as §1
# [31] = tested on: Bacteroides fragilis 1936B; assay: as above; assay type: cell-based; details: 24-hour incubation
# Protocol: as §1
# [32] = tested on: Bacteroides melaninogenicus 1856/28; assay: as above; assay type: cell-based; details: Prevotella intermedia, 24-hour incubation
# Protocol: as §1
# [33] = tested on: Bacteroides melaninogenicus 2736; assay: as above; assay type: cell-based; details: 24-hour incubation
# Protocol: as §1
# [34] = tested on: Bacteroides thetaiotaomicron 1438; assay: as above; assay type: cell-based; details: 24-hour incubation
# Protocol: as §1
# [35] = tested on: Bacteroides vulgatis 1211; assay: as above; assay type: cell-based; details: 24-hour incubation
# Protocol: as §1
# [36] = tested on: Clostridium difficile 2994; assay: as above; assay type: cell-based; details: Clostridioides difficile, 24-hour incubation
# Protocol: as §1
# [37] = tested on: Clostridium septicum 1128; assay: as above; assay type: cell-based; details: 24-hour incubation
# Protocol: as §1
# [38] = tested on: Eubacterium aerofaciens 1235; assay: as above; assay type: cell-based; details: Collinsella aerofaciens, 24-hour incubation
# Protocol: as §1
# [39] = tested on: Fusobacterium necrophorum 6054A; assay: as above; assay type: cell-based; details: 24-hour incubation
# Protocol: as §1
# [40] = tested on: Fusobacterium symbiosum 1470; assay: as above; assay type: cell-based; details: 24-hour incubation
# Protocol: as §1
# [41] = tested on: Peptococcus asaccharolyticus 1302; assay: as above; assay type: cell-based; details: Peptoniphilus asaccharolyticus, 24-hour incubation
# Protocol: as §1
# [42] = tested on: Peptococcus prevoti 1281; assay: as above; assay type: cell-based; details: 24-hour incubation
# Protocol: as §1
# [43] = tested on: Peptostreptococcus anaerobius 1428; assay: as above; assay type: cell-based; details: 24-hour incubation
# Protocol: as §1
# [44] = tested on: Peptostreptococcus intermedius 1264; assay: as above; assay type: cell-based; details: 24-hour incubation
# Protocol: as §1
# [45] = tested on: Propionibacterium acnes 79; assay: as above; assay type: cell-based; details: Cutibacterium acnes, 24-hour incubation
# Protocol: as §1
# [46] = tested on: Clostridium perfringens 81; assay: microbe, parasite or virus in culture; assay type: cell-based; details: Clostridium perfringens, 81, 24 h
# [47] = tested on: Eimeria acervulina; assay: Feeding experiments in infected chicks; assay type: in vivo; details: in the feed of young chickens; chicks infected with Eimeria acervulina
# [48] = tested on: HSV I; assay: microbe, parasite or virus in culture; assay type: cell-based, Herpes (HSV I); details: read-out: level at which active
# [49] = tested on: HSV II; assay: microbe, parasite or virus in culture; assay type: cell-based, Herpes (HSV II); details: tissue-culture tests; read-out: level at which active
# [50] = tested on: Vaccina; assay: microbe, parasite or virus in culture; assay type: cell-based; details: tissue-culture tests; read-out: level at which active
# [51] = tested on: Great Lakes influenza; assay: microbe, parasite or virus in culture; assay type: cell-based; details: read-out: level at which active
# [52] = tested on: Para influenza; assay: microbe, parasite or virus in culture; assay type: cell-based; details: read-out: level at which active
# [53] = tested on: Rhino viruses; assay: microbe, parasite or virus in culture; assay type: cell-based; details: tissue-culture tests; read-out: level at which active
# [54] = tested on: Pseudorabies virus; assay: microbe, parasite or virus in culture; assay type: cell-based; details: Suid alphaherpesvirus 1, read-out: level at which active
# [55] = tested on: adult housefly; assay: Insecticidal activity; assay type: in vivo
# Text: The A80789 compounds are also useful as insecticides. For example, A80789 is active against adult housefly at levels as low as 100 ppm.
# [56] = Solubility; assay type: physicochemical; details: free acid form
# [57] = tested on: Culture A80789; assay: Antibiotic sensitivity disc test on the producing culture; assay type: cell-based, Streptomyces hygroscopicus; details: ISP No. 2 agar
# Protocol: Resistance to antibiotics was measured by padding antibiotic sensitivity discs onto the surface of seeded ISP No. 2 agar plates. Resistance was scored as (+) when no zone of inhibition was observed and as (-) when a zone of inhibition was observed.
smiles,measurement,setting,value
"O=C(Nc1ccc([N+](=O)[O-])cc1)Nc1ccc([N+](=O)[O-])cc1 [4,4'-dinitrocarbanilide]",anticoccidial activity,[1],exhibits anticoccidial activity
COC1CCC(OC2C(C)C3(OC(CC4OC(O)(C(C)C(=O)O)C(C)C(OC)C4C)CC(OC)C3C)OC2(C)C2CCC(C3CCC(C4OC(C)(O)C(C)CC4C)O3)O2)OC1C (centres unmarked) [A80789],MIC,[2],> 128 µg/mL
same,MIC,[3],> 128 µg/mL
same,MIC,[4],> 128 µg/mL
same,MIC,[5],> 128 µg/mL
same,MIC,[6],> 128 µg/mL
same,MIC,[7],> 128 µg/mL
same,MIC,[8],> 128 µg/mL
same,MIC,[9],> 128 µg/mL
same,MIC,[10],> 128 µg/mL
same,MIC,[11],> 128 µg/mL
same,MIC,[12],> 128 µg/mL
same,MIC,[13],> 128 µg/mL
same,MIC,[14],> 128 µg/mL
same,MIC,[15],> 128 µg/mL
same,MIC,[16],> 128 µg/mL
same,MIC,[17],> 128 µg/mL
same,MIC,[18],0.25 µg/mL
same,MIC,[19],0.25 µg/mL
same,MIC,[20],0.25 µg/mL
same,MIC,[21],0.25 µg/mL
same,MIC,[22],0.125 µg/mL
same,MIC,[23],0.25 µg/mL
same,MIC,[24],> 128 µg/mL
same,MIC,[25],> 128 µg/mL
same,MIC,[26],0.03 µg/mL
same,MIC,[27],0.03 µg/mL
same,MIC,[28],8 µg/mL
same,MIC,[29],8 µg/mL
same,MIC,[30],8 µg/mL
same,MIC,[31],8 µg/mL
same,MIC,[32],4 µg/mL
same,MIC,[33],8 µg/mL
same,MIC,[34],128 µg/mL
same,MIC,[35],1 µg/mL
same,MIC,[36],0.5 µg/mL
same,MIC,[37],0.5 µg/mL
same,MIC,[38],0.5 µg/mL
same,MIC,[39],2 µg/mL
same,MIC,[40],2 µg/mL
same,MIC,[41],≤ 0.03 µg/mL
same,MIC,[42],0.125 µg/mL
same,MIC,[43],0.25 µg/mL
same,MIC,[44],0.125 µg/mL
same,MIC,[45],0.25 µg/mL
same,MIC,[46],0.5 µg/mL
same,level in feed (as low as) that caused a reduction in the number of lesions,[47],100 ppm
same,minimal effective concentration,[48],2000 µg/mL
same,minimal effective concentration,[49],2000 µg/mL
same,minimal effective concentration,[50],2000 µg/mL
same,minimal effective concentration,[51],2000 µg/mL
same,minimal effective concentration,[52],2000 µg/mL
same,minimal effective concentration,[53],2000 µg/mL
same,minimal effective concentration,[54],< 0.078 µg/mL
same,level (as low as) at which active,[55],100 ppm
same,Solubility,[56]; in water,Insoluble
same,Solubility,"[56]; lower alcohols such as methanol, acetone, ethyl acetate, chloroform, diethyl ether, benzene, toluene, warm hexane",soluble
CC[C@H](C)[C@H](N)C1=N[C@H](C(=O)N[C@@H](CC(C)C)C(=O)N[C@H](CCC(=O)O)C(=O)N[C@H](C(=O)N[C@H]2CCCCNC(=O)[C@H](CC(N)=O)NC(=O)[C@@H](CC(=O)O)NC(=O)[C@H](Cc3cnc[nH]3)NC(=O)[C@@H](Cc3ccccc3)NC(=O)[C@H]([C@@H](C)CC)NC(=O)[C@@H](CCCN)NC2=O)[C@@H](C)CC)CS1 [bacitracin] ({Ileψ(thiazoline)Cys}-L[dE]IK[dOrn]I[dF]H[dD]N; lactam 4-C),Resistance of culture to antibiotic,[57]; disc 10 units,sensitive
CC(=O)OCC1=C(C(=O)O)N2C(=O)[C@@H](NC(=O)Cc3cccs3)[C@H]2SC1 [cephalothin],Resistance of culture to antibiotic,[57]; disc 30 mcg,sensitive
CCC[C@@H]1C[C@@H](C(=O)N[C@@H]([C@H]2O[C@H](SC)[C@H](O)[C@@H](O)[C@H]2O)[C@@H](C)O)N(C)C1 [lincomycin],Resistance of culture to antibiotic,[57]; disc 2 mcg,resistant
CO[C@H]1C[C@H](O[C@H]2[C@H](C)[C@@H](O[C@@H]3O[C@H](C)C[C@H](N(C)C)[C@H]3O)[C@@H](C)C[C@@]3(CO3)C(=O)[C@H](C)[C@@H](O)[C@@H](C)[C@@H](C)OC(=O)[C@@H]2C)O[C@@H](C)[C@@H]1O [oleandomycin],Resistance of culture to antibiotic,[57]; disc 15 mcg,sensitive
CC1(C)S[C@@H]2[C@H](NC(=O)Cc3ccccc3)C(=O)N2[C@H]1C(=O)O [penicillin G],Resistance of culture to antibiotic,[57]; disc 10 units,resistant
